# According to publication PMC10307885, “A Phase 1/2 trial of SRA737 (a Chk1 inhibitor) administered orally in patients with advanced cancer” (British Journal of Cancer, 2023):
# How the values were obtained:
# [1] = test system: patients with advanced solid tumours; test: Phase 1/2 dose-escalation/expansion study: safety, TEAEs (NCI CTCAE v4.03), DLT, MTD, RP2D; type: in vivo
# Description: The objectives of this first-in-human, Phase 1/2, open-label, dose-escalation study of SRA737 as a single agent were to establish the safety profile, define the maximum tolerated dose (MTD) and the recommended Phase 2 dose (RP2D) and schedule, and to evaluate preliminary efficacy in prospectively selected genetically defined patients enrolled in indication-specific expansion cohorts. Secondary objectives included defining the pharmacokinetic (PK) profile of SRA737.
# The study used an accelerated titration design in dose escalation beginning with single subject dose-level cohorts. Doubling of the SRA737 dose was permitted in the subsequent cohort if a dose level was determined to be safe by the cohort review committee consisting of the lead investigator, study investigators representing the site(s) currently enrolling patients, and representatives of the study sponsor. In the event of any SRA737-related adverse event Grade 2 or greater toxicity during Cycle 1, the cohort was to be expanded to 3 to 6 subjects. Thereafter the study followed a rolling 6 design wherein once the first subject completed the 7-day observation period following the first dose of SRA737, subsequent subjects in that cohort started treatment. […] Enrolment of expansion cohorts at the highest dose level determined to be safe and tolerable was initiated prior to the completion of dose escalation and determination of MTD or RP2D.
# A single dose of SRA737 was given at one visit on Day −7 to Day −4 (prior to the start of Cycle 1) for PK assessments. SRA737 was then administered orally on a continuous daily dosing schedule in 28-day cycles. An accelerated titration design was used with single-patient dose-escalation cohorts starting with 20 mg SRA737 administered once daily (QD) in the first cohort, with dose doubling in subsequent single-patient cohorts. If a patient had SRA737-related Grade 2 toxicity in a dose level cohort during Cycle 1, that cohort was expanded to 3 to 6 patients, and subsequent cohorts followed a rolling six design.
# Patients were assessed for DLT from the first SRA737 dose (Day −7 to Day −4) until the end of Cycle 1 (up to 35 days).
# Expansion cohorts including up to 20 patients with one of the 6 specified indication-specific tumour types, were treated at SRA737 doses selected by the cohort review committee based on all available safety and PK data; expansion doses were at or below the maximum tolerated dose (MTD) from the dose-escalation phase. Patients could continue treatment until disease progression or discontinuation from study due to unacceptable toxicity, investigator/sponsor decision, or withdrawal of consent.
# Safety assessments including adverse events, laboratory parameters, electrocardiograms (ECGs), and echocardiograms were conducted throughout treatment and until 30 days after the last study treatment or initiation of new anticancer treatment.
# The Safety Evaluable population included all patients who received at least one dose of SRA737.
# The DLT window is defined from the first dose (Day -7 to Day -4) until the end of Cycle 1 (up to 35 days).
# A DLT is defined as any highly probably or probably SRA737-related event of: […]
# [2] = Preliminary in vitro solubility studies of SRA737 citrate drug product; type: physicochemical; conditions: over the physiological range
# [3] = test system: patients with advanced cancer; conditions: in combination with low-dose gemcitabine; anogenital, cervical, high-grade serous ovarian, rectal and small cell lung cancer; cited from earlier work
# [4] = irrespective of SRA737 dose level, any grade
smiles,measurement,setting,value
"N#Cc1cnc(Nc2cc(NC[C@H]3CNCCO3)c(C(F)(F)F)cn2)cn1 [SRA737, (R)-5-((4-((morpholin-2-ylmethyl)amino)-5-(trifluoromethyl)pyridin-2-yl)amino)pyr azine-2-carbonitrile]",SRA737-related TEAE of Grade 3 or higher: Rash,[1]; SRA737 dose > 800 mg (N = 49),1 (2.0) n (%)
same,SRA737-related TEAE of Grade 3 or higher: Rash maculopapular,[1]; SRA737 dose > 800 mg (N = 49),2 (4.1) n (%)
same,SRA737-related TEAE of Grade 3 or higher: Thrombocytopenia,[1]; SRA737 dose > 800 mg (N = 49),1 (2.0) n (%)
same,SRA737-related TEAE of any grade: Anaemia,[1]; SRA737 dose > 800 mg (N = 49),11 (22.4) n (%)
same,SRA737-related TEAE of any grade: Decreased Appetite,[1]; SRA737 dose > 800 mg (N = 49),7 (14.3) n (%)
same,SRA737-related TEAE of any grade: Diarrhoea,[1]; SRA737 dose > 800 mg (N = 49),34 (69.4) n (%)
same,SRA737-related TEAE of any grade: Fatigue,[1]; SRA737 dose > 800 mg (N = 49),27 (55.1) n (%)
same,SRA737-related TEAE of any grade: Nausea,[1]; SRA737 dose > 800 mg (N = 49),32 (65.3) n (%)
same,SRA737-related TEAE of any grade: Neutropenia,[1]; SRA737 dose > 800 mg (N = 49),7 (14.3) n (%)
same,SRA737-related TEAE of any grade: Vomiting,[1]; SRA737 dose > 800 mg (N = 49),28 (57.1) n (%)
same,Any SRA737-related Grade ≥3 treatment-emergent adverse event (TEAE),[1]; SRA737 dose ≤ 800 mg (N = 58),14 (24.1) n (%)
same,"Any SRA737-related treatment-emergent adverse event (TEAE), any grade",[1]; SRA737 dose ≤ 800 mg (N = 58),51 (87.9) n (%)
same,SRA737-related TEAE of Grade 3 or higher: Aspartate aminotransferase increased,[1]; SRA737 dose ≤ 800 mg (N = 58),2 (3.4) n (%)
same,SRA737-related TEAE of Grade 3 or higher: Diarrhoea,[1]; SRA737 dose ≤ 800 mg (N = 58),1 (1.7) n (%)
same,SRA737-related TEAE of Grade 3 or higher: Dyspnoea,[1]; SRA737 dose ≤ 800 mg (N = 58),2 (3.4) n (%)
same,SRA737-related TEAE of Grade 3 or higher: Fatigue,[1]; SRA737 dose ≤ 800 mg (N = 58),0 n (%)
same,SRA737-related TEAE of Grade 3 or higher: Lymphocyte count decreased,[1]; SRA737 dose ≤ 800 mg (N = 58),3 (5.2) n (%)
same,SRA737-related TEAE of Grade 3 or higher: Neutropenia,[1]; SRA737 dose ≤ 800 mg (N = 58),4 (6.9) n (%)
same,SRA737-related TEAE of Grade 3 or higher: Rash,[1]; SRA737 dose ≤ 800 mg (N = 58),2 (3.4) n (%)
same,SRA737-related TEAE of Grade 3 or higher: Rash maculopapular,[1]; SRA737 dose ≤ 800 mg (N = 58),1 (1.7) n (%)
same,SRA737-related TEAE of Grade 3 or higher: Thrombocytopenia,[1]; SRA737 dose ≤ 800 mg (N = 58),2 (3.4) n (%)
same,SRA737-related TEAE of any grade: Anaemia,[1]; SRA737 dose ≤ 800 mg (N = 58),5 (8.6) n (%)
same,SRA737-related TEAE of any grade: Decreased Appetite,[1]; SRA737 dose ≤ 800 mg (N = 58),12 (20.7) n (%)
same,SRA737-related TEAE of any grade: Diarrhoea,[1]; SRA737 dose ≤ 800 mg (N = 58),33 (56.9) n (%)
same,SRA737-related TEAE of any grade: Fatigue,[1]; SRA737 dose ≤ 800 mg (N = 58),14 (24.1) n (%)
same,SRA737-related TEAE of any grade: Nausea,[1]; SRA737 dose ≤ 800 mg (N = 58),32 (55.2) n (%)
same,SRA737-related TEAE of any grade: Neutropenia,[1]; SRA737 dose ≤ 800 mg (N = 58),10 (17.2) n (%)
same,SRA737-related TEAE of any grade: Vomiting,[1]; SRA737 dose ≤ 800 mg (N = 58),21 (36.2) n (%)
same,Grade 3 or higher neutropenia rate,"[1]; current study, overall",8%
same,"Dose-limiting toxicity, events included",[1]; daily doses of 1000 and 1300 mg QD,"gastrointestinal events, neutropenia and thrombocytopenia"
same,patients who tolerated the dose but required anti-emetic medication and/or night-time dosing,"[1]; human, in vivo",7 patients
same,Fatal adverse events attributed to SRA737,[1]; in vivo,none
same,Fatal adverse events reported,[1]; in vivo,ten
same,TEAE attributed to SRA737: anaemia,[1]; [4],15%
same,TEAE attributed to SRA737: decreased appetite,[1]; [4],18%
same,TEAE attributed to SRA737: diarrhoea,[1]; [4],63%
same,TEAE attributed to SRA737: fatigue,[1]; [4],38%
same,TEAE attributed to SRA737: nausea,[1]; [4],60%
same,TEAE attributed to SRA737: neutropenia,[1]; [4],16%
same,TEAE attributed to SRA737: vomiting,[1]; [4],46%
same,recommended Phase 2 dose (RP2D),[1]; oral monotherapy,800 mg QD
same,maximum tolerated dose (MTD),"[1]; oral monotherapy, continuous daily dosing, 28-day cycles",1000 mg QD
same,"GI events (diarrhoea, nausea, vomiting) reported at Grade 3 or higher severity",[1]; patients treated at 800 mg QD or higher,less than 5 % of patients
same,pH-dependent solubility,[2],minimal to moderate pH-dependent solubility
same,RECIST tumour responses,[3],RECIST partial tumour responses were observed
